Entries after “also recorded” stand apart in the source; their conditions may differ.
Tests used:
[1] = test system: human colon carcinoma HT-29 cells; format: cell-based
[2] = test system: human melanoma cells; format: cell-based

## C=C(C=O)C[C@@H]1C[C@H](O)[C@]2(C)O[C@@H]3C[C@@H]4O[C@@H]5C[C@]6(C)O[C@]7(C)CC[C@@H]8O[C@@H]9C[C@]%10(C)O[C@@H]%11C(C)=CC(=O)O[C@H]%11C[C@H]%10O[C@H]9C[C@@H](C)[C@H]8O[C@H]7C[C@H]6O[C@H]5C/C=C\[C@H]4O[C@H]3C[C@H]2O1 [brevetoxin]
[1]
  response in the presence of ouabain and veratridine: lack of response
[2]
  response in the presence of ouabain and veratridine: does not respond; also recorded: lack of response

From patent US5858687A (priority 1995, dated 1999)
